Literature values in patent US8501405B2, “Real-time sequencing methods and systems” (Pacific Biosciences of California, Inc., priority 2009, dated 2013).
Read-outs that look alike come from different tables or passages of the source.

Assays:
[1] = not given; remark: listed apart in the source
[2] = not given; remark: listed apart in the source
[3] = DNA polymerases with reverse transcriptase activity; available values for DNA-dependent DNA polymerization
[4] = DNA polymerases with reverse transcriptase activity, available values for DNA-dependent DNA polymerization
[5] = reverse transcriptases and RNA-dependent RNA polymerases, * wild-type or published mutants

Row | Strand-displacement DNA synthesis [4] | Strand-displacement DNA synthesis (reverse transcriptases and RNA-dependent RNA polymerases) | Molecule | Processivity (bases) [1, 4] | Maximum speed (bases/s) [2, 4] [bases/s] | Activity with phospholinked nucleotides [3] | Processivity (bases) [1, 5] | Maximum speed (bases/s) [2, 5] [bases/s]
1 | yes (degrades | – | E. coli pol I: DNA polymerase with reverse transcriptase activity | ~50 bases | 17 | – | – | –
2 | yes | – | phi29: DNA polymerase with reverse transcriptase activity | >70,000 bases | 100 | yes | – | –
3 | – | yes | phi6: RNA-dependent RNA polymerase (protein, UniProt P11124 2-665, looked up) RNA-directed RNA polymerase: PRRAPAFPLSDIKAQMLFANNIKAQQASKRSFKEGAIETYEGLLSVDPRFLSFKNELSRYLTDHFPANVDEYGRVYGNGVRTNFFGMRHMNGFPMIPATWPLASNLKKRADADLADGPVSERDNLLFRAAVRLMFSDLEPVPLKIRKGSSTCIPYFSNDMGTKIEIAERALEKAEEAGNLMLQGKFDDAYQLHQMGGAYYVVYRAQSTDAITLDPKTGKFVSKDRMVADFEYAVTGGEQGSLFAASKDASRLKEQYGIDVPDGFFCERRRTAMGGPFALNAPIMAVAQPVRNKIYSKYAYTFHHTTRLNKEEKVKEWSLCVATDVSDHDTFWPGWLRDLICDELLNMGYAPWWVKLFETSLKLPVYVGAPAPEQGHTLLGDPSNPDLEVGLSSGQGATDLMGTLLMSITYLVMQLDHTAPHLNSRIKDMPSACRFLDSYWQGHEEIRQISKSDDAILGWTKGRALVGGHRLFEMLKEGKVNPSPYMKISYEHGGAFLGDILLYDSRREPGSAIFVGNINSMLNNQFSPEYGVQSGVRDRSKRKRPFPGLAWASMKDTYGACPIYSDVLEAIERCWWNAFGESYRAYREDMLKRDTLELSRYVASMARQAGLAELTPIDLEVLADPNKLQYKWTEADVSANIHEVLMHGVSVEKTERFLRSVMPR | – | – | – | 13,500 bases | 120
4 | – | – | Thermus thermophilus: DNA polymerase with reverse transcriptase activity (protein, UniProt P52028 1-834, looked up) DNA polymerase I, thermostable: MEAMLPLFEPKGRVLLVDGHHLAYRTFFALKGLTTSRGEPVQAVYGFAKSLLKALKEDGYKAVFVVFDAKAPSFRHEAYEAYKAGRAPTPEDFPRQLALIKELVDLLGFTRLEVPGYEADDVLATLAKKAEKEGYEVRILTADRDLYQLVSDRVAVLHPEGHLITPEWLWEKYGLRPEQWVDFRALVGDPSDNLPGVKGIGEKTALKLLKEWGSLENLLKNLDRVKPENVREKIKAHLEDLRLSLELSRVRTDLPLEVDLAQGREPDREGLRAFLERLEFGSLLHEFGLLEAPAPLEEAPWPPPEGAFVGFVLSRPEPMWAELKALAACRDGRVHRAADPLAGLKDLKEVRGLLAKDLAVLASREGLDLVPGDDPMLLAYLLDPSNTTPEGVARRYGGEWTEDAAHRALLSERLHRNLLKRLEGEEKLLWLYHEVEKPLSRVLAHMEATGVRLDVAYLQALSLELAEEIRRLEEEVFRLAGHPFNLNSRDQLERVLFDELRLPALGKTQKTGKRSTSAAVLEALREAHPIVEKILQHRELTKLKNTYVDPLPSLVHPRTGRLHTRFNQTATATGRLSSSDPNLQNIPVRTPLGQRIRRAFVAEAGWALVALDYSQIELRVLAHLSGDENLIRVFQEGKDIHTQTASWMFGVPPEAVDPLMRRAAKTVNFGVLYGMSAHRLSQELAIPYEEAVAFIERYFQSFPKVRAWIEKTLEEGRKRGYVETLFGRRRYVPDLNARVKSVREAAERMAFNMPVQGTAADLMKLAMVKLFPRLREMGARMLLQVHDELLLEAPQARAEEVAALAKEAMEKAYPLAVPLEVEVGMGEDWLSAKG | 300 bases | 120 | – | – | –
